Assay results reported in patent US20220168252A1, “RETINOID DERIVATIVES WITH ANTITUMOR ACTIVITY” (BIOGEM S.C. A R.L., priority 2016, published 2022).
Counter-ions that a name gives are not always drawn. Like-named read-outs stand apart in the source and are kept apart here. Each block holds one compound with its values, some of them ahead of it.

What was measured:
[1] = tested on: Human Adarotene-resistant NCI-H460 (R9A) NSCLC; test: Anti-proliferative activity, H460-R9A, 24 h + 48 h recovery, SRB; assay type: cell-based; conditions: 24 h exposure, read-out: IC50 ± SD H460-R9A
Procedure: (§1) Tumor cells were exposed for 24 h to new atypical retinoids (AR) and the anti-proliferative activity assessed upon 48 h recovery in drug-free medium with the SRB assay. RI=Resistance Index (ratio between the IC50 values of resistant and sensitive cells).

Human NCI-H460 NSCLC = test: Anti-proliferative activity, NCI-H460, 72 h, SRB; assay type: cell-based; conditions: for cytotoxic activity / IC50 range on NCI-H460 cells: SRB/MTT assay
Procedure: (§2) The anti-proliferative activity of the POLA1/HDAC dual inhibitors MIR002 and GEM144 was assessed on various cell lines from solid and hematological cancers.
(§3) Human tumor cells were treated with POLA1/HDAC dual inhibitors and cell survival assessed upon 72 h with the SRB assay. HDAC=Histone Deacetylase. POLA1=DNA Polymerase Alpha 1. RI=Resistance Index.

MM487-Luc mesothelioma [2] = test: Anti-proliferative activity, MM487-Luc, 24 h + 48 h recovery, SRB; assay type: cell-based; conditions: Homo sapiens, 24 h exposure, read-out: IC50 ± SD MM487-Luc
Procedure: as §1

U87MG glioblastoma cells = test: Anti-proliferative activity, U87MG, 24 h + 48 h recovery, SRB; assay type: cell-based; conditions: Homo sapiens, U-87 MG, 24 h exposure, read-out: IC50 ± SD U87MG
Procedure: as §1

[3] = tested on: Human Adarotene-resistant NCI-H460 (R9A) NSCLC; conditions: Zuco V. et al, Neoplasia 2005; cited from earlier work
[4] = tested on: H460-R9A retinoid resistant cells; test: H460-R9A lung cancer subcutaneous xenograft in mice; conditions: Cisplatin 4 mg/kg IV q7dx4w, MIR002 50 mg/kg OS bid, qdx5/wx4w
Procedure: CD-1 nude and NOG mice, females, 4-5 weeks-old, were housed under specific-pathogen-free conditions in individually ventilated cages.
Cells were cultured in appropriated media and expanded in a 37° C. incubator with saturated humidity and an atmosphere of 95% air and 5% CO2, and were sub-cultured every 2-3 days. Before the injection in mice, cells were checked with MycoAlert® Mycoplasma Detection Kit (Lonza) to exclude mycoplasma contamination, counted by trypan blue dye exclusion, evaluated for cell viability (>95%).
H-460-R9A lung cancer cells were suspended at a concentration of 25×10^6/ml. 5×10^6 tumor cells were suspended in 0.2 ml of M199, then inoculated subcutaneously on the right flank of each animal.
MIR002 was dissolved to a concentration of 3.3 mg/mL in 10% DMSO, 5% ethanol, 20% Kolliphor® EL and 65% Na2CO3 10 mM pH 11 and administered by gavage; Cisplatin was dissolved to a concentration of 0.8 mg/mL in sterile saline solution and administered intravenously.
Four days after inoculation, tumor masses of H460-R9A were measured in length and width using a Mitutoyo caliper, mice were sorted basing on tumor volume (TV) and treatments were started. Tumor volume was calculated as follows: TV (mm3)=(Length (mm)×Width (mm)2)/2. Tumor growth was followed by biweekly measurements. Tumor Growth Inhibition (TGI) for each group was calculated as follows: TGI (%)=100−(mean TVtreated/mean TVcontrol×100). Mice were weighed twice a week.

[5] = tested on: ST1926-resistant H460 (H460-R9A) NSCLC; test: Anti-proliferative activity, H460-R9A, 72 h, SRB; assay type: cell-based, human
Procedure: as §2, §3

[6] = tested on: parent A2780 ovarian carcinoma; test: Anti-proliferative activity, A2780, 72 h, SRB; assay type: cell-based, human; conditions: read-out: A2780 IC50 ± SD
Procedure: as §2, §3

[7] = tested on: multidrug-resistant A2780-Dx ovarian carcinoma; test: Anti-proliferative activity, A2780-Dx, 72 h, SRB; assay type: cell-based, human
Procedure: as §2, §3

MM473-Luc mesothelioma = test: Anti-proliferative activity, MM473-Luc, 72 h, SRB; assay type: cell-based, Human
Procedure: as §2
(§4) HDAC=Histone Deacetylase. POLA1=DNA Polymerase Alpha 1. N.e.=not evaluated.

MM487-Luc mesothelioma [8] = test: Anti-proliferative activity, MM487-Luc, 72 h, SRB; assay type: cell-based, Human
Procedure: as §2, §4

B16-Luc (Melanoma) = test: Anti-proliferative activity, B16-Luc, 72 h, SRB; assay type: cell-based, mouse
Procedure: as §2, §4

NB4 (leukemia) = test: Cell survival, NB4, 72 h, MTT; assay type: cell-based, Human; conditions: read-out: NB4 (leukemia) IC50 ± SD
Procedure: as §2
(§5) Tumor cells were treated with POLA1/HDAC dual inhibitors and cell survival assessed upon 72 h with the MTT assay. HDAC=Histone Deacetylase. POLA1=DNA Polymerase Alpha 1.

THP-1 (leukemia) = test: Cell survival, THP-1, 72 h, MTT; assay type: cell-based, Human
Procedure: as §2, §5

U2932 (lymphoma) = test: Cell survival, U2932, 72 h, MTT; assay type: cell-based, Human
Procedure: as §2, §5

Z138 (lymphoma) = test: Cell survival, Z138, 72 h, MTT; assay type: cell-based, Human
Procedure: as §2, §5

DU145 prostate carcinoma = conditions: 72 h; SRB
Procedure: (§6) To this end, cells in the logarithmic phase of growth were seeded in 96-wells plastic plates, incubated overnight in culture medium, and treated for 72 h with scalar concentrations (2-fold dilution series) of the compounds.
(§7) Tumor cells were exposed to the inhibitors, and the anti-proliferative activity assessed upon 72 h with the SRB assay. N.e.=not evaluated.

HT29 colon carcinoma = conditions: 72 h; SRB
Procedure: as §6, §7

SW620 colon carcinoma = conditions: 72 h; SRB
Procedure: as §6, §7

[9] = tested on: parent A2780 ovarian cancer cell line; test: Anti-proliferative activity, A2780, 24 h + 48 h recovery, SRB; assay type: cell-based; conditions: Homo sapiens, 24 h exposure, read-out: IC50 ± SD A2780
Procedure: as §1

[10] = tested on: A2780-Dx multidrug-resistant ovarian cancer cell line; test: Anti-proliferative activity, A2780-Dx, 24 h + 48 h recovery, SRB; assay type: cell-based, Human; conditions: for RI (Resistance Index, ratio between the IC50 values of resistant and sensitive cells): A2780-Dx vs A2780, 24 h exposure; for IC50: Homo sapiens, A2780/DX, 24 h exposure, SRB, read-out: IC50 ± SD A2780-Dx
Procedure: as §1
As described by Zuco V. et al in Neoplasia, 2005 July; 7(7):667-77, H460-R9A are about 70 fold resistant with respect to parental H460 to Adarotene. […] Ovarian cancer A2780 and its clone derivative A2780DX (Doxorubicin resistant) which overexpress P-glycoprotein (PGP), were used to evaluate the possibility of these new molecules to be absorbed at intestinal level. In fact, the overexpression of PGP, as well known, drastically reduces the possibility, after oral administration, of absorption of several chemotherapeutic agents (i.e. Paclitaxel, doxorubicin etc.). Since the IC50 of the tested compounds in A2780 and A2780DX, have similar values we conclude that they are not PGP substrates and they could be administrated to the patients via oral route.

U87MG-Luc (Glioma) = test: Orthotopic glioma murine model (U87MG-Luc), IVIS imaging; assay type: in vivo, mice; conditions: 100 mg/kg IP, qdx5x4w, intracranial U87MG-Luc
Procedure: Orthotopic glioma murine model. 1×10^6 Brain glioblastoma bioluminescent cells (U-87 MG) were injected intracranically and tumor growth was evaluated through IVIS imaging system.
Tumor growth was followed by biweekly measurements. […] Mice were weighed twice a week. […] Tumor growth was further followed by weekly BLI measurements. TGI was calculated as for the H460 trial.
The activity of compound 2 (RC1375) was evaluated on glioma xenograft murine models. Brain glioblastoma bioluminescent cells (U-87 MG) were injected intracranically and tumor growth was evaluated through IVIS imaging system. After a week of injection, 2 (RC1375) (100 mg/kg) was administered intraperitoneally to mice (qdx5x4w).

[11] = Homo sapiens, NCI-H460, chronically exposed 72 h, SRB (Table 2), read-out: IC50 ± SD

- IC50 (Human NCI-H460 NSCLC; [11]): ≤ 5000 nM
SMILES: O=C(O)C=Cc1ccc(-c2ccc(OCCCCCCCC(=O)NO)c(C34CC5CC(CC(C5)C3)C4)c2)cc1 [Compound 3, 3-[3′-Adamantan-1-yl-4′-(7-hydroxycarbamoyl-heptyloxy)-biphenyl-4-yl]-acrylic acid]

- IC50 (Human NCI-H460 NSCLC; [11]): ≤ 10000 nM
SMILES: NCCSSCCNC(=O)CCCOc1ccc(-c2ccc(/C=C/C(=O)O)cc2)cc1C12CC3CC(CC(C3)C1)C2 [Compound 4, 2-(2-{4-[3-Adamantan-1-yl-4′-(2-carboxy-vinyl)-biphenyl-4-yloxy]-butyrylamino}-ethyldisulfanyl)-ethyl-ammonium; trifluoroacetate]

- IC50 (Human NCI-H460 NSCLC; [11]): < 5000 nM
- IC50 [1]: 8300 ± 200 nM
- IC50 (MM487-Luc mesothelioma [2]): 1700 ± 80 nM
- IC50 [9]: 4200 ± 300 nM
- RI (Resistance Index, ratio between the IC50 values of resistant and sensitive cells) [10]: 0.9
- IC50 [10]: 3900 ± 100 nM
SMILES: O=C(O)/C=C/c1ccc(-c2ccc(OCCCC(=O)NO)c(C34CC5CC(CC(C5)C3)C4)c2)cc1 [Compound 1, 3-[3′-Adamantan-1-yl-4′-(3-hydroxycarbamoyl-propoxy)-biphenyl-4-yl]-acrylic acid]

- IC50 (Human NCI-H460 NSCLC; [11]): < 100 nM
SMILES: O=C(O)/C=C/c1ccc(-c2ccc(OC(=O)CCC(=O)NCCSSCCNC(=O)/C(Cc3ccc(O)c(Br)c3)=N/O)c(C34CC5CC(CC(C5)C3)C4)c2)cc1 [Compound 6, 3-{3′-Adamantan-1-yl-4′-[3-(2-{2-[3-(3-bromo-4-hydroxy-phenyl)-2-hydroxyimino-propionylamino]-ethyldisulfanyl}-ethylcarbamoyl)-propionyloxy]-biphenyl-4-yl}-acrylic acid]

- IC50 (Human NCI-H460 NSCLC; [11]): < 5000 nM
SMILES: O=C(O)/C=C/c1ccc(-c2ccc(OCCCC(=O)NCCSSCCNC(=O)C(Cc3ccc(O)c(Br)c3)=NO)c(C34CC5CC(CC(C5)C3)C4)c2)cc1 [Compound 5, 3-{3′-Adamantan-1-yl-4′-[3-(2-{2-[3-(3-bromo-4-hydroxy-phenyl)-2-hydroxyimino-propionylamino]-ethyldisulfanyl}-ethylcarbamoyl)-propoxy]-biphenyl-4-yl}-acrylic acid]

Second part, the compound before the results:

SMILES: O=C(COc1ccc(-c2ccc3cc(C(=O)O)ccc3c2)cc1C12CC3CC(CC(C3)C1)C2)NO [Compound 14, 6-(3-Adamantan-1-yl-4-hydroxycarbamoylmethoxy-phenyl)-naphthalene-2-carboxylic acid]
- IC50 [1]: 2300 ± 400 nM

SMILES: O=C(O)/C=C/c1ccc(-c2ccc(O)c(C34CC5CC(CC(C5)C3)C4)c2)cc1 [Adarotene, reference compound]
- IC50 [1]: 26900 ± 700 nM
- IC50 (MM487-Luc mesothelioma [2]): 9200 ± 300 nM
- IC50 (U87MG glioblastoma cells): 1630 ± 100 nM
- resistance of H460-R9A with respect to parental H460 [3]: about 70 fold
- BWL Day + 35 ([4]; Adarotene 15 mg/Kg OS q7dx5x4w): 12%

SMILES: O=C(COc1ccc(-c2ccc3cc(C(=O)O)ccc3c2)cc1C12CC3CC(CC(C3)C1)C2)NOC1CCCCO1 (stereo not shown) [Compound 13, 6-{3-Adamantan-1-yl-4-[(tetrahydro-pyran-2-yloxycarbamoyl)-methoxy]-phenyl}-naphthalene-2-carboxylic acid]
- IC50 [1]: 16900 ± 500 nM

SMILES: N.N.[Cl][Pt][Cl] [Cisplatin, reference compound]
- TGI Day + 35 ([4]; combination same doses): 34%

SMILES: O=C(O)/C=C/c1ccc(-c2ccc(OCCC(=O)NO)c(C34CC5CC(CC(C5)C3)C4)c2)cc1 [Compound 12, 3-[3′-Adamantan-1-yl-4′-(2-hydroxycarbamoyl-ethoxy)-biphenyl-4-yl]-acrylic acid]
- IC50 [1]: 10600 ± 300 nM

SMILES: CC(C)(Oc1ccc(-c2ccc(/C=C/C(=O)O)cc2)cc1C12CC3CC(CC(C3)C1)C2)C(=O)NO [BIO146]
- cytotoxic activity / IC50 range on NCI-H460 cells (Human NCI-H460 NSCLC; 72 h): micro molar range

SMILES: CC(Oc1ccc(-c2ccc(/C=C/C(=O)O)cc2)cc1C12CC3CC(CC(C3)C1)C2)C(=O)NO (stereo not shown) [GEM144]
- IC50 (Human NCI-H460 NSCLC; 72 h, SRB (Table 8), read-out: NCI-H460 IC50 ± SD): 260 ± 9 nM
- cytotoxic activity / IC50 range on NCI-H460 cells (Human NCI-H460 NSCLC; 72 h): nano molar range
- RI (Resistance Index) ([5]; H460-R9A vs NCI-H460): 8.5
- IC50 ([5]; SRB, read-out: H460-R9A IC50 ± SD): 2200 ± 90 nM
- IC50 [6]: 950 ± 40 nM
- IC50 ([7]; 72 h, SRB, read-out: A2780-Dx IC50 ± SD): 660 ± 8 nM
- RI (Resistance Index) ([7]; A2780-Dx vs A2780, 72 h): 0.7
- substrate for the P-gp drug efflux pump ([7]; indicated by low resistance index, A2780-Dx vs A2780): very poor substrate
- cytotoxicity, MM473 mesothelioma (MM473-Luc mesothelioma): very effective
- IC50 (MM473-Luc mesothelioma; read-out: MM473-Luc IC50 ± SD): 1400 ± 200 nM
- cytotoxicity, MM487 mesothelioma (MM487-Luc mesothelioma [8]): very effective
- IC50 (MM487-Luc mesothelioma [8]; read-out: MM487-Luc IC50 ± SD): 730 ± 200 nM
- cytotoxicity, B16 melanoma (B16-Luc (Melanoma)): very effective
- IC50 (B16-Luc (Melanoma); read-out: B16-Luc (Melanoma) IC50 ± SD): 370 ± 30 nM
- IC50 (NB4 (leukemia)): 230 ± 30 nM
- cytotoxicity, THP-1 leukemia (THP-1 (leukemia)): very effective
- IC50 (THP-1 (leukemia); read-out: THP-1 (leukemia) IC50 ± SD): 520 ± 20 nM
- cytotoxicity, U2932 lymphoma (U2932 (lymphoma)): very effective
- IC50 (U2932 (lymphoma); read-out: U2932 (lymphoma) IC50 ± SD): 770 ± 100 nM
- cytotoxicity, Z138 lymphoma (Z138 (lymphoma)): very effective
- IC50 (Z138 (lymphoma); read-out: Z138 (lymphoma) IC50 ± SD): 160 ± 30 nM
- cytotoxicity, DU145 prostate carcinoma (DU145 prostate carcinoma): very effective
- cytotoxicity, HT29 colon carcinoma (HT29 colon carcinoma): very effective
- cytotoxicity, SW620 colon carcinoma (SW620 colon carcinoma): very effective

SMILES: NNC(=O)COc1ccc(-c2ccc(C=CC(=O)O)cc2)cc1C12CC3CC(CC(C3)C1)C2 [Compound 17, 3-(3′-adamantan-1-yl-4′-hydrazinocarbonylmethoxy-biphenyl-4-yl)-acrylic acid trifluoroacetate]
- IC50 [1]: 17300 ± 1300 nM

SMILES: O=C(O)/C=C/c1ccc(-c2ccc(OCCCCC(=O)NO)c(C34CC5CC(CC(C5)C3)C4)c2)cc1 [Compound 2, 3-[3′-Adamantan-1-yl-4′-(4-hydroxycarbamoyl-butoxy)-biphenyl-4-yl]-acrylic acid]
- IC50 (Human NCI-H460 NSCLC; [11]): < 5000 nM
- IC50 [1]: 5900 ± 100 nM
- IC50 (MM487-Luc mesothelioma [2]): 1900 ± 200 nM
- IC50 (U87MG glioblastoma cells): 5500 ± 900 nM
- IC50 [9]: 3700 ± 300 nM
- RI (Resistance Index, ratio between the IC50 values of resistant and sensitive cells) [10]: 1.3
- IC50 [10]: 4500 ± 70 nM
- BLI Average (Day) (U87MG-Luc (Glioma); day +35): 1.31 × 10^5 ± 1.26 × 10^5 p/s/cm^2/sr
- TGI (U87MG-Luc (Glioma)): 72%
- melting point: 224 °C (dec.)
